Data on 7 compounds can be found in EPA's ToxRefDB 2.

For data set [1], the system named is rat. The settings on record: Sub-acute repeat dose toxicity, sprague dawley, Oral, Gavage/Intubation, dose end: 1 month, group: systemic.
A further data set has as its system primate. The conditions noted are these: Sub-acute repeat dose toxicity, macaque, Oral, Gavage/Intubation, dose end: 28 day, group: systemic.
The test system of data set [2] is mouse. The settings on record: Subchronic oral toxicity in rodents, cd1, Gavage/Intubation, dose end: 3 month, group: systemic, systemic / pathology microscopic / gallbladder / degeneration + systemic / pathology microscopic / gallbladder / hyperplasia + systemic / ….
The subject of data set [3] is rat. The conditions noted are these: Subchronic oral toxicity in rodents, Fischer, Feed, dose end: 13 week, group: systemic, systemic / clinical chemistry / thyroxine (t4) / thyroxine (t4), total + systemic / clinical chemistry / triiodothyronine (t3) / ….
In data set [4] the test system is rat. The settings on record: Prenatal developmental toxicity study, other, Oral, Gavage/Intubation, dose end: 15 GD.
The subject of data set [5] is rat. The settings on record: Prenatal developmental toxicity study, other, Oral, Gavage/Intubation, dose end: 15 GD. This is another data set of the same source.
Data set [6] relates to rat. The settings on record: Multigenerational reproductive toxicity study, other, Oral, Feed, dose end: 2 generation.
Data set [7] concerns rat. The settings on record: Subchronic oral toxicity in rodents, other, Feed, dose end: 13 week, group: systemic, systemic / pathology microscopic / stomach / erosion + systemic / pathology microscopic / stomach / inflammation + systemic / pathology ….
Data set [8] relates to dog. The conditions noted are these: Subchronic oral toxicity in nonrodent, beagle, Feed, dose end: 13 week, group: systemic, systemic / clinical chemistry / globulins / globulins + systemic / clinical chemistry / protein / protein + systemic / hematology / platelet….
Data set [9] has as its system dog. The settings on record: Subchronic oral toxicity in nonrodent, beagle, Gavage/Intubation, dose end: 91 day, group: systemic, systemic / in life observation / body weight / body weight + systemic / in life observation / body weight / body weight gain + systemic / ….
Data set [10] has as its system rat. The settings on record: Subchronic oral toxicity in rodents, other, Gavage/Intubation, dose end: 90 day, group: systemic, systemic / in life observation / body weight / body weight + systemic / in life observation / body weight / body weight gain + systemic / ….
Data set [11] has as its system rat. The conditions noted are these: Multigenerational reproductive toxicity study, sprague dawley, Oral, Feed, dose end: 2 generation.
The test system of data set [12] is mouse. The conditions noted are these: Carcinogenicity, cd1, Oral, Feed, dose end: 104 week, group: systemic.
The subject of another data set is rabbit. The settings on record: Prenatal developmental toxicity study, new zealand white, Oral, Gavage/Intubation, dose end: 28 GD.
For data set [13], the system named is dog. The settings on record: Chronic toxicity, beagle, Oral, Feed, dose end: 104 week, group: systemic.
In data set [14] the test system is dog. The settings on record: Subchronic oral toxicity in nonrodent, beagle, Feed, dose end: 90 day, group: systemic.
For data set [15], the system named is rat. The conditions noted are these: Developmental neurotoxicity study; long evans; Injection; Subcutaneous; dose end: 132 PND; group: cannot be grouped; systemic / pathology gross / brain / reduced size + systemic / pathology microscopic / brain / depletion cellular.
In data set [16] the test system is rat. The conditions noted are these: Prenatal developmental toxicity study, other, Oral, Gavage/Intubation, dose end: 15 GD. The source holds these as a separate data set.
The test system of data set [17] is rat. The conditions noted are these: Subchronic oral toxicity in rodents, other, Feed, dose end: 13 week, group: systemic.
Setting [18] is: systemic / clinical chemistry / alanine aminotransferase (alt/sgpt) / alanine aminotransferase (alt/sgpt) + systemic / clinical chemistry / ….
Where [19] appears, read: systemic / clinical chemistry / albumin / albumin + systemic / clinical chemistry / calcium / calcium + systemic / in life observation / ….
[20] abbreviates: group: developmental, developmental / developmental malformation / bone / incomplete ossification + developmental / developmental malformation / bone / wavy + ….
The mark [21] stands for this setting: group: maternal, systemic / in life observation / body weight / body weight gain + systemic / in life observation / food consumption / food consumption.
[22] abbreviates: group: maternal, systemic / in life observation / body weight / body weight gain + systemic / in life observation / food consumption / food consumption + ….
The mark [23] stands for this setting: group: developmental, developmental / developmental malformation / bone / wavy.
[24] abbreviates: group: maternal, systemic / in life observation / body weight / body weight gain.
[25] abbreviates: group: offspring, systemic / organ weight / spleen / absolute + systemic / organ weight / spleen / relative to body weight + developmental / offspring ….
Where [26] appears, read: group: offspring, systemic / organ weight / spleen / absolute + systemic / organ weight / spleen / relative to body weight + systemic / organ weight / thymus….
[27] abbreviates: group: parental, systemic / in life observation / body weight / body weight + systemic / in life observation / clinical signs / general pallor.
The mark [28] stands for this setting: group: offspring, systemic / in life observation / body weight / offspring (pup) weight.
Where [29] appears, read: group: parental, systemic / pathology microscopic / epididymis / hypospermia + systemic / pathology microscopic / testes / atrophy + systemic / pathology ….
Where [30] appears, read: systemic / pathology microscopic / liver / adenoma/carcinoma combined + systemic / pathology microscopic / liver / carcinoma + systemic / ….
[31] abbreviates: systemic / pathology microscopic / liver / carcinoma + systemic / pathology microscopic / liver / adenoma/carcinoma combined + systemic / ….
Setting [32] is: group: developmental, developmental / developmental malformation / kidney / small renal papilla.
The mark [33] stands for this setting: group: maternal, systemic / in life observation / clinical signs / body surface staining + systemic / in life observation / food consumption / food ….
Where [34] appears, read: systemic / pathology microscopic / liver / [other] + systemic / clinical chemistry / alanine aminotransferase (alt/sgpt) / alanine ….
[35] abbreviates: systemic / pathology microscopic / liver / [other] + systemic / in life observation / body weight / body weight gain + systemic / in life ….
Setting [36] is: systemic / clinical chemistry / cholesterol / cholesterol + systemic / clinical chemistry / albumin / albumin + systemic / in life ….
[37] abbreviates: group: developmental, developmental / developmental malformation / bone / fused + developmental / developmental malformation / bone / incomplete ossification.
Where [38] appears, read: systemic / in life observation / body weight / body weight + systemic / in life observation / food consumption / food efficiency + systemic….

Consider `OCC(CO)n1cnc(-c2ccc(F)cc2)c1-c1ccnc(Oc2ccccc2)n1`, for which the LOAEL in the data set with rat [1] (setting [18]) is above 2000 mg/kg/day; with primate (setting [19]), above 2000 mg/kg/day; in the data set with mouse [2], above 300 mg/kg/day. Besides, the NEL with rat [1] (setting [18]) is 3 mg/kg/day; with primate (setting [19]), 10 mg/kg/day; in the data set with mouse [2] it was below 30 mg/kg/day. Moreover, the NOAEL is at least 2000 mg/kg/day in the data set on rat [1] (setting [18]), at least 2000 mg/kg/day in the data set with primate (setting [19]) and at least 300 mg/kg/day with mouse [2]. In addition, the LEL with rat [1] (systemic / in life observation / body weight / body weight gain) worked out at 30 mg/kg/day; in the data set on primate (systemic / clinical chemistry / calcium / calcium + systemic / in life observation / clinical signs / feces, discoloration + systemic / …), 300 mg/kg/day; with mouse [2] it was 30 mg/kg/day.
Turning to `CNC.O=C(O)COc1ccc(Cl)cc1Cl` [2,4-D, Dimethylamine salt], the LEL in the data set with rat [3] was 120 mg/kg/day; in the data set on rat [4] (group: developmental, developmental / developmental malformation / general / [other]), 50 mg/kg/day; in the data set with rat [4] (setting [21]) it was 50 mg/kg/day. The LOAEL with rat [3] was determined as 120 mg/kg/day; with rat [4] (setting [20]) it was 100 mg/kg/day; in the data set on rat [4] (setting [21]) it was 50 mg/kg/day. Moreover, the NEL with rat [3] stood at 18.1 mg/kg/day; with rat [4] (setting [20]), 12.5 mg/kg/day; in the data set on rat [4] (setting [22]), 12.5 mg/kg/day. The NOAEL with rat [3] amounted to 18.1 mg/kg/day; with rat [4] (setting [20]), 50 mg/kg/day; in the data set with rat [4] (setting [22]), 12.5 mg/kg/day.
As to `CCCCCCCCn1sc(Cl)c(Cl)c1=O` [4,5-Dichloro-2-octyl-3(2H)-isothiazolone], the LEL with rat [5] (setting [23]) stood at 100 mg/kg/day; in the data set with rat [5] (setting [24]) it was 10 mg/kg/day; in the data set on rat [6] (setting [26]), 20 mg/kg/day; in the data set with rat [6] (group: parental, systemic / in life observation / body weight / body weight + systemic / in life observation / body weight / body weight gain + systemic / in…), 40 mg/kg/day; in the data set on rat [7], 60.7 mg/kg/day; in the data set on dog [8], 45.9 mg/kg/day. For the same compound, the LOAEL was 100 mg/kg/day in the data set with rat [5] (setting [23]); 30 mg/kg/day with rat [5] (group: maternal, systemic / in life observation / clinical signs / defecation + systemic / in life observation / food consumption / food consumption); 20 mg/kg/day in the data set on rat [6] (setting [26]); 40 mg/kg/day in the data set on rat [6] (group: parental, systemic / in life observation / body weight / body weight + systemic / in life observation / body weight / body weight gain); 60.7 mg/kg/day in the data set with rat [7]; 45.9 mg/kg/day in the data set with dog [8]. Besides, the NEL is 30 mg/kg/day in the data set with rat [5] (setting [23]); below 10 mg/kg/day in the data set with rat [5] (setting [24]); 10 mg/kg/day in the data set with rat [6] (setting [25]); 20 mg/kg/day in the data set on rat [6] (setting [27]); 32.5 mg/kg/day with rat [7]; 10.1 mg/kg/day with dog [8]. The NOAEL with rat [5] (setting [23]) amounted to 30 mg/kg/day; with rat [5] (group: maternal, systemic / in life observation / clinical signs / defecation + systemic / in life observation / food consumption / food consumption + …) it was 10 mg/kg/day; in the data set with rat [6] (setting [25]) it was 10 mg/kg/day; in the data set on rat [6] (setting [27]), 20 mg/kg/day; in the data set on rat [7], 32.5 mg/kg/day; in the data set with dog [8], 10.1 mg/kg/day.
Regarding `CCC(CN1CCOCC1)[N+](=O)[O-]` (stereo not given) [4-(2-Nitrobutyl)morpholine], in the data set with dog [9], the LEL is 25 mg/kg/day, the LOAEL came out at 25 mg/kg/day, the NEL is 10 mg/kg/day and the NOAEL came to 10 mg/kg/day. Also, in the data set on rat [10], the LEL stood at 10 mg/kg/day, the LOAEL is above 50 mg/kg/day, the NEL turned out to be 5 mg/kg/day and the NOAEL was at least 50 mg/kg/day.
Consider `CCCCNC(=O)n1c(NC(=O)OC)nc2ccccc21` [Benomyl], for which the LEL in the data set on rat [11] (setting [28]) was found to be 234 mg/kg/day; in the data set on rat [11] (setting [29]), 168 mg/kg/day; with mouse [12] (setting [31]), 75 mg/kg/day; in the data set on rabbit (setting [32]) it was 180 mg/kg/day; with rabbit (setting [33]), 180 mg/kg/day; in the data set with dog [13] (setting [34]), 62.5 mg/kg/day. Also, the LEL with dog [14] (systemic / clinical chemistry / cholesterol / cholesterol) was found to be 12.5 mg/kg/day. Moreover, the LOAEL in the data set on rat [11] (setting [28]) is 234 mg/kg/day; with rat [11] (group: parental, systemic / pathology microscopic / epididymis / hypospermia), 234 mg/kg/day; in the data set with mouse [12] (setting [30]), above 750 mg/kg/day; with rabbit (setting [32]), 180 mg/kg/day; in the data set on rabbit (setting [33]), 180 mg/kg/day; in the data set with dog [13] (setting [34]) it was 62.5 mg/kg/day. Besides, in the data set with dog [14] (systemic / clinical chemistry / cholesterol / cholesterol + systemic / clinical chemistry / alanine aminotransferase (alt/sgpt) / alanine …), the LOAEL came out at 37.5 mg/kg/day. Moreover, the NOAEL with rat [11] (setting [28]) was 38 mg/kg/day; in the data set with rat [11] (group: parental, systemic / pathology microscopic / epididymis / hypospermia + systemic / in life observation / body weight / body weight + systemic / in …) it was 38 mg/kg/day; with mouse [12] (setting [30]) it was at least 750 mg/kg/day; in the data set on rabbit (setting [32]), 90 mg/kg/day; with rabbit (setting [33]), 90 mg/kg/day; with dog [13] (setting [35]), 12.5 mg/kg/day. The NOAEL with dog [14] (setting [36]) was determined as 12.5 mg/kg/day. Besides, the NEL is 38 mg/kg/day in the data set on rat [11] (group: offspring, systemic / in life observation / body weight / offspring (pup) weight + systemic / in life observation / clinical signs / reduced body size); 28 mg/kg/day in the data set with rat [11] (setting [29]); below 75 mg/kg/day in the data set with mouse [12] (setting [31]); 90 mg/kg/day in the data set with rabbit (setting [32]); 90 mg/kg/day in the data set with rabbit (setting [33]); 12.5 mg/kg/day in the data set on dog [13] (setting [35]). The NEL in the data set with dog [14] (setting [36]) was 2.5 mg/kg/day.
Regarding `COc1cc2c(c(OC)c1OC)-c1ccc(OC)c(=O)cc1[C@@H](NC(C)=O)CC2` [Colchicine], in the data set with rat [15], the LEL came out at 0.4 mg/kg/day, the LOAEL is above 0.4 mg/kg/day, the NEL was below 0.4 mg/kg/day and the NOAEL was at least 0.4 mg/kg/day.
Regarding `CC(C)Nc1nc(N)nc(Cl)n1` [Deethylatrazine], the LEL with rat [16] (setting [37]) came to 100 mg/kg/day; with rat [16] (setting [21]), 25 mg/kg/day; in the data set on rat [17] (setting [38]), 35.1 mg/kg/day. Also, the LOAEL in the data set with rat [16] (setting [37]) is 100 mg/kg/day; in the data set with rat [16] (setting [21]), 25 mg/kg/day; with rat [17] (systemic / in life observation / body weight / body weight + systemic / in life observation / food consumption / food efficiency) it was 35.1 mg/kg/day. For the same compound, the NEL was 25 mg/kg/day in the data set on rat [16] (setting [37]), 5 mg/kg/day in the data set on rat [16] (setting [22]) and 3.2 mg/kg/day in the data set on rat [17] (setting [38]). For the same compound, the NOAEL in the data set with rat [16] (setting [37]) worked out at 25 mg/kg/day; in the data set on rat [16] (setting [22]), 5 mg/kg/day; in the data set with rat [17] (setting [38]), 3.2 mg/kg/day.

In general, LOAEL refers to the lowest dose or exposure tested at which an adverse effect was seen. In general, NOAEL refers to the highest dose or exposure tested at which no adverse effect was seen.
